Test results reported in patent US11000537B2, “Composition comprising novel ginsenoside” (AMOREPACIFIC CORPORATION, priority 2018, dated 2021).

Assays:
Format in all cases: cell-based
[1] = tested on: FAS (Fatty acid synthase); test: FAS gene expression in HepG2 (qPCR); details: 24 hours
Description: The hepatocyte cell line HepG2 purchased from the International Center for Biological Resources (ATCC) were placed in Dulbecco's Modified Eagle's Medium (Sigma) to which 10% fetal bovine serum (Hyclone) and 1% penicillin/streptomycin (Sigma) were added, and cultured in a 5% CO2 incubator. […] After 24 hours of treatment, cells were collected, RNA was extracted using Trizol™ reagent (Thermo Fisher Scientific), and cDNA was synthesized using RevertAid™ 1st strand cDNA synthesis kit (Thermo Fisher Scientific). Bio-Rad's CFX96 real-time quantitative PCR (qPCR) instrument was used to observe the expression of the genes SREBP1c (sterol-regulatory element binding protein 1c), ACC (acetyl-CoA carboxylase) and FAS (Fatty acid synthase), which induces fat synthesis or accumulation.

adipocyte cell 3T3-L1 = test: fat accumulation in adipocytes (Oil-red O staining)
Description: The adipocyte cell 3T3-L1 purchased from the International Center for Biological Resources (ATCC) were placed in Dulbecco's Modified Eagle's Medium (Sigma) to which 10% fetal bovine serum (Hyclone) and 1% penicillin/streptomycin (Sigma) were added, and cultured in a 5% CO2 incubator. In order to differentiate preadipocytes into adipocytes, the cells were filled in a culture plate and cultured. After 48 hours, the cells were replaced with Dulbecco's modified eagle medium (DMEM) to which 10% of fetal bovine serum (Hyclone), 0.5 mM of 3-isobutyl-1-methylxanthine (Sigma), 1 μM of dexamethasone (Sigma), 5 μg/ml of insulin (Sigma), 1% of penicillin/streptomycin (Sigma) were added and further cultured for 48 hours. […] As a control to confirm the effect of inhibiting adipocyte differentiation, 20 μM of bisphenol A diglycidyl ether (BADGE) (Sigma), a PPARγ (Peroxisome proliferator-activated receptor gamma) antagonist, was used. Thereafter, the cells were further cultured for 10 days while being replaced with a medium containing 10% FBS and 5 μg/ml insulin and 1% penicillin/streptomycin at two-day intervals to induce adipocyte differentiation.
Differentiated adipocytes treated with each of the seven types of ginsenosides were fixed with formaldehyde solution (Sigma), stained with Oil-red O staining solution (Sigma), and then dissolved with isopropanol (Sigma), and then the amount of the stained fat was quantified by measuring at 490 nm absorbance.

SH-SY5Y cells = test: cytotoxicity, Cell Counting Kit (CCK)-8; details: 0.1, 1, 5, 10, 20 and 50 μM, FIG. 17
Description: 10 μl of the CCK-8 reagent was added to the culturing SH-SY5Y cells (Dojindo, Md., USA) with reference to a 96-well plate, and left at 37° C. for 2 hours, and then the absorbance was measured at 450 nm. The cell viability was marked as a percentage (%) of the absolute optical density of each sample relative to the untreated sample. At this time, the concentration of the novel ginsenoside GS #10, which is an example of the present disclosure, contained in the medium in which the cells were cultured was 0.1, 1, 5, 10, 20, and 50 μM, respectively.

LDL receptor (LDLR) = test: LDL receptor gene expression in HepG2 (qPCR); details: 24 hours
CD36 = CD36 adipocyte marker gene expression (qPCR)
Description: The adipocyte cell 3T3-L1 purchased from the International Center for Biological Resources (ATCC) were placed in Dulbecco's Modified Eagle's Medium (Sigma) to which 10% fetal bovine serum (Hyclone) and 1% penicillin/streptomycin (Sigma) were added, and cultured in a 5% CO2 incubator. In order to differentiate preadipocytes into adipocytes, the cells were filled in a culture plate and cultured. After 48 hours, the cells were replaced with Dulbecco's modified eagle medium (DMEM) to which 10% of fetal bovine serum (Hyclone), 0.5 mM of 3-isobutyl-1-methylxanthine (Sigma), 1 μM of dexamethasone (Sigma), 5 μg/ml of insulin (Sigma), 1% of penicillin/streptomycin (Sigma) were added and further cultured for 48 hours. During 48 hours of culture, seven types of ginsenoside reagents (GS #01-GS #06, GS #10) extracted from Ginseng seeds were treated at 10 μM each to affect adipocyte differentiation. […]
After the differentiation of adipocytes in the same manner as above, the expressions of PPARγ (Peroxisome proliferator-activated receptor gamma), aP2 (Adipocyte protein 2) and CD36 were observed as adipocyte marker genes. […] Bio-Rad's CFX96 real-time quantitative PCR (qPCR) instrument was used to quantify the expression levels of each gene. […]

HepG2 cells = test: triglyceride accumulation in hepatocytes (Triglyceride Assay Kit)
Excerpt: In addition, in order to investigate whether inhibition of the expression of fat synthesis-related genes by ginsenoside derived from Ginseng seed may be involved in actual fat synthesis and accumulation, HepG2 cells were used to treat seven ginsenosides (GS #01-GS #06, GS #10; […]) and the control group (fenofibrate, FF) in the same manner as above, and then the Triglyceride Assay Kit (Abcam) was used to measure the amount of triglyceride (TG) accumulated in hepatocytes.

[2] = tested on: human umbilical vein endothelial cells (HUVECs); test: survival rate of vascular endothelial cells (MTT)
Description: In this experiment, it was confirmed whether the novel ginsenoside GS #10 of an embodiment of the present disclosure can increase the survival rate of vascular endothelial cells. Specifically, human umbilical vein endothelial cells (HUVECs) were purchased from the International Center for Biological Resources (ATCC) and cultured, and then the novel ginsenoside GS #10 was treated at a concentration of 1-10 μg/ml and MTT(3-(4,5-dimethylthiazol-2-yl)-2,5-diphenyltetrazolium bromide) analysis was performed to observe cell death.

SMILES: CC1(C)C(=O)CC[C@@]2(C)C1[C@@H](O[C@H]1OC(CO)[C@H](O)C(O)C1O[C@H]1OC(CO)[C@H](O)C(O)C1O)C[C@]1(C)C2C[C@@H](O)C2C([C@]3(C)CC[C@H](C(C)(C)O)O3)CC[C@]21C (stereo partly drawn) [GS #10, (20S,24R)-6-O-β-D-glucopyranosyl(1→2)-β-D-glucopyranoside-dammar-3-one-20,24-epoxy-6a,12b,25-triol]
- FAS expression inhibitory effect ([1]; 10 μM, HepG2, FIG. 20): significantly higher expression inhibitory effect
- FAS expression inhibitory effect ([1]; 1, 10 μM, compared with Rg1, Rg3, Rb1, FIG. 25): far superior in lipid metabolism inhibitory effect
- fat accumulation inhibitory effect in adipocytes (adipocyte cell 3T3-L1; 1 μM and 10 μM, compared with Rg1, Rg3, Rb1, FIG. 38): far superior in adipocyte differentiation inhibition and fat accumulation inhibitory effect
- fat accumulation inhibitory effect in adipocytes (adipocyte cell 3T3-L1; 10 μM during 48 hours of differentiation, FIG. 34): most excellent fat accumulation inhibitory effect
- cytotoxicity (cell viability) (SH-SY5Y cells): did not exhibit cytotoxicity up to 50 μM
- increase of LDLR expression level compared to the control (−) (LDL receptor (LDLR); 10 μM, HepG2, FIG. 29): more than 2 times
- promotion of intracellular transport (LDLR expression) (LDL receptor (LDLR); 1 and 10 μM, compared with Rg1, Rg3, Rb1, FIG. 32): most effective in inhibiting cholesterol synthesis and promoting intracellular transport
- adipocyte differentiation inhibition, CD36 gene expression (CD36; 1 μM and 10 μM, compared with Rg1, Rg3, Rb1, FIG. 41): far superior in adipocyte differentiation inhibition
- adipocyte differentiation inhibition, CD36 gene expression (CD36; 10 μM, FIG. 37): more effective in inhibiting the adipocyte differentiation
- inhibitory effect of lipid (triglyceride) accumulation in hepatocytes (HepG2 cells; 10 μM, HepG2, FIG. 21): most excellent inhibitory effect of lipid accumulation in hepatocytes
- inhibition of triglyceride accumulated in hepatocytes (HepG2 cells; 1, 10 μM, compared with Rg1, Rg3, Rb1, FIG. 26): far superior in lipid metabolism inhibitory effect
- survival rate-increasing effect of vascular endothelial cells ([2]; 10 μg/ml, MTT, compared with GS #01-GS #06, FIG. 45): highest survival rate-increasing effect of vascular endothelial cells
- increased survival rate of vascular endothelial cells (HUVEC) ([2]; 10 μg/ml, compared with Rg1, Rg3, Rb1, FIG. 47): far superior
- survival rate of HUVEC ([2]; 1-10 μg/ml, MTT, FIG. 44): increase the survival rate of HUVEC regardless of the concentration
